Source: patent publication US20170165294A1, “METHOD AND APPARATUS FOR ADMINISTERING GASES INCLUDING NITRIC OXIDE TO ADDRESS FIBROSIS” (priority 2015, published 2017)
Read-outs that look alike come from different tables or passages of the source.

Experiments:
[1] = test system: mice with intratracheal administration of LPS; assay: LPS-induced lung injury in mice (intratracheal LPS); assay type: in vivo; settings: for lung injury: 2% H2 and/or 20 ppm NO for 3 hours starting at 5 minutes or 3 hours after LPS administration; for pulmonary inflammation / cell apoptosis: H2 and/or NO treatment; for cell apoptosis: pulmonary
[2] = test system: NF-κB; assay: LPS-induced pulmonary NF-κB activation; assay type: in vivo, mice; settings: H2 and/or NO treatment
[3] = test system: polymicrobial sepsis; assay: Polymicrobial sepsis-induced lung injury; assay type: in vivo; settings: H2 and/or NO treatment
Source text: However until applicants' discovery, there has not been a successful combination of hydrogen gas with breathing gas using the claimed apparatus and methods. Applicants have discovered that NO's effect as an antioxidant may be enhanced by eliminating highly reactive by-products of NO inhalation such as peroxynitrite, by adding H2 to inhaled NO gas.

[4] = test system: chrondrocytes; settings: cited from earlier work
[5] = test system: brain ischemia-reperfusion (I/R); settings: inhaled; oxidative stress induced by focal ischemia-reperfusion; cited from earlier work
[6] = test system: myofibroblasts; settings: rat, in vivo; cited from earlier work
[7] = test system: rats; settings: inhaled; cited from earlier work
[8] = test system: neonatal piglets; settings: cited from earlier work; for lung collagen accumulation: short-term inhaled exposure, neonatal piglets
[9] = test system: HIF; settings: cited from earlier work
[10] = test system: neonatal rats; settings: compared with control rats; cited from earlier work

| SMILES | lung injury [1] | pulmonary inflammation [1] | cell apoptosis [1] | LPS-induced pulmonary early and late NF-κB activation [2] | lung injury in polymicrobial sepsis [3] | generation of hydroxyl radicals and peroxynitrite [4] | brain injury [5] | collagen synthesis [6] | fibroblast number and differentiation [6] | survival in high O2 exposure [7] | lung collagen content after recovery ([8]; after a 3-day recovery period in RA) | lung collagen accumulation [8] | effect on HIF ([9]; high doses and after 30 minutes) | effect on HIF ([9]; low dose, for 30 minutes, during hypoxia) | survival of exposure to >95% O2 [10] |
| --- | --- | --- | --- | --- | --- | --- | --- | --- | --- | --- | --- | --- | --- | --- | --- |
| [HH] [H2, hydrogen] | significantly improved | down-regulated | down-regulated | inhibited | significantly attenuated | selectively reduce | markedly suppressed |  |  |  |  |  |  |  |  |
| [N]=O [NO, nitric oxide] | significantly improved | down-regulated | down-regulated | inhibited | significantly attenuated |  |  | inhibiting | reducing | increase survival | significant decline | increases | inhibitory | stimulates |  |
| COC(=O)[C@@H](N)CCCNC(=N)N[N+](=O)[O-] [Nw-nitro-1-arginine methyl ester] |  |  |  |  |  |  |  |  |  |  |  |  |  |  | significantly fewer survived |
| O=O [O2, oxygen] |  |  |  |  |  |  |  |  |  |  |  | increases |  |  |  |
